Experimental data as given in ChEMBL document CHEMBL1201862, “PubChem BioAssay data set” (2004).
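Dose response: 5 concentrations. Exposure: 48 h. Format: 96-well plates. Endpoint: linear interpolation; highest concentration if not reached. Abbreviation: GI50, concentration required for 50% inhibition of growth.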 Active and inactive are the calls of the source. Rule as the data show it: active = GI50 up to about 1.1 µM and inactive = higher.

What was measured:
Assay in all cases: NCI anticancer screen, dose series, 48 h
OVCAR-5 = tested on: OVCAR-5
M14 = tested on: M14
PC-3 = tested on: PC-3
SR = tested on: SR
LOX IMVI = tested on: LOX IMVI
BT-549 = tested on: BT-549
RPMI-8226 = tested on: RPMI-8226
SK-MEL-2 = tested on: SK-MEL-2
SF-268 = tested on: SF-268
UACC-257 = tested on: UACC-257
HCC 2998 = tested on: HCC 2998
SF-295 = tested on: SF-295
NCI-H23 = tested on: NCI-H23
HCT-15 = tested on: HCT-15
HCT-116 = tested on: HCT-116
MOLT-4 = tested on: MOLT-4
SW-620 = tested on: SW-620
TK-10 = tested on: TK-10
MDA-MB-231 = tested on: MDA-MB-231
A498 = tested on: A498

Cn1c2ccccc2n2c(=O)c3cc([N+](=O)[O-])ccc3c(C#N)c12
GI50 (OVCAR-5): > 100 µM (inactive) | GI50 (M14): > 100 µM (inactive) | GI50 (PC-3): > 100 µM (inactive) | GI50 (SR): > 100 µM (inactive) | GI50 (LOX IMVI): > 100 µM (inactive) | GI50 (BT-549): > 100 µM (inactive) | GI50 (RPMI-8226): > 100 µM (inactive) | GI50 (SK-MEL-2): > 100 µM (inactive) | GI50 (SF-268): > 100 µM (inactive) | GI50 (UACC-257): > 100 µM (inactive) | GI50 (HCC 2998): > 100 µM (inactive) | GI50 (SF-295): 83.2 µM (inactive) | GI50 (NCI-H23): > 100 µM (inactive) | GI50 (HCT-15): > 100 µM | GI50 (HCT-116): > 100 µM (inactive) | GI50 (MOLT-4): > 100 µM (inactive) | GI50 (SW-620): > 100 µM (inactive) | GI50 (TK-10): > 100 µM (inactive)

C1CN(c2nc3c(nnc4nc(N5CCOCC5)sc43)s2)CCO1
GI50 (OVCAR-5): > 100 µM (inactive) | GI50 (MDA-MB-231): > 100 µM (inactive) | GI50 (M14): > 100 µM (inactive) | GI50 (PC-3): > 100 µM (inactive) | GI50 (LOX IMVI): > 100 µM (inactive) | GI50 (BT-549): > 100 µM (inactive) | GI50 (RPMI-8226): > 100 µM (inactive) | GI50 (SK-MEL-2): > 100 µM (inactive) | GI50 (SF-268): 49.7 µM (inactive) | GI50 (UACC-257): > 100 µM (inactive) | GI50 (SF-295): > 100 µM (inactive) | GI50 (NCI-H23): > 100 µM (inactive) | GI50 (HCT-15): > 100 µM | GI50 (A498): > 100 µM (inactive) | GI50 (HCT-116): > 100 µM (inactive) | GI50 (MOLT-4): 58.7 µM (inactive) | GI50 (SW-620): > 100 µM (inactive) | GI50 (TK-10): > 100 µM (inactive)

Cc1nc2nnc(CCCCCCCCc3nnc4nc(C)[nH]n34)n2[nH]1
GI50 (OVCAR-5): > 100 µM (inactive) | GI50 (MDA-MB-231): > 100 µM (inactive) | GI50 (M14): > 100 µM (inactive) | GI50 (PC-3): > 100 µM (inactive) | GI50 (LOX IMVI): 47.4 µM (inactive) | GI50 (BT-549): > 100 µM (inactive) | GI50 (SK-MEL-2): > 100 µM (inactive) | GI50 (SF-268): > 100 µM (inactive) | GI50 (UACC-257): > 100 µM (inactive) | GI50 (HCC 2998): > 100 µM (inactive) | GI50 (SF-295): > 100 µM (inactive) | GI50 (NCI-H23): > 100 µM (inactive) | GI50 (HCT-15): > 100 µM | GI50 (A498): > 100 µM (inactive) | GI50 (HCT-116): > 100 µM (inactive) | GI50 (MOLT-4): > 100 µM (inactive) | GI50 (SW-620): > 100 µM (inactive) | GI50 (TK-10): > 100 µM (inactive)

[N-]=[N+]=NC[C@H]1OCO[C@H](CN=[N+]=[N-])[C@H]2OCCOCCOc3ccccc3OCCOCCO[C@@H]21
GI50 (MDA-MB-231): > 100 µM (inactive) | GI50 (M14): > 100 µM (inactive) | GI50 (PC-3): > 100 µM (inactive) | GI50 (LOX IMVI): > 100 µM (inactive) | GI50 (BT-549): > 100 µM (inactive) | GI50 (RPMI-8226): > 100 µM (inactive) | GI50 (SK-MEL-2): > 100 µM (inactive) | GI50 (SF-268): > 100 µM (inactive) | GI50 (UACC-257): > 100 µM (inactive) | GI50 (HCC 2998): > 100 µM (inactive) | GI50 (SF-295): > 100 µM (inactive) | GI50 (NCI-H23): > 100 µM (inactive) | GI50 (HCT-15): > 100 µM | GI50 (HCT-116): > 100 µM (inactive) | GI50 (MOLT-4): > 100 µM (inactive) | GI50 (SW-620): > 100 µM (inactive) | GI50 (TK-10): > 100 µM (inactive)

Oc1ccccc1/C=N/c1ccc(-c2nc3ccccc3s2)cc1
GI50 (OVCAR-5): 28.3 µM (inactive) | GI50 (M14): 37.1 µM (inactive) | GI50 (PC-3): 18.7 µM (inactive) | GI50 (SR): 33.7 µM (inactive) | GI50 (LOX IMVI): 26.4 µM (inactive) | GI50 (BT-549): 31.8 µM (inactive) | GI50 (RPMI-8226): 23.2 µM (inactive) | GI50 (SK-MEL-2): 21.3 µM (inactive) | GI50 (SF-268): 23.2 µM (inactive) | GI50 (UACC-257): 24 µM (inactive) | GI50 (HCC 2998): 20.3 µM (inactive) | GI50 (SF-295): 24.1 µM (inactive) | GI50 (NCI-H23): 31.8 µM (inactive) | GI50 (HCT-15): 24.4 µM | GI50 (A498): 21.4 µM (inactive) | GI50 (HCT-116): 29.6 µM (inactive) | GI50 (MOLT-4): 22.7 µM (inactive) | GI50 (SW-620): 41.5 µM (inactive) | GI50 (TK-10): 31.2 µM (inactive)

NNC(=O)c1c(SCc2ccccc2)nc2c3ccccc3ccn12
GI50 (OVCAR-5): 20.5 µM (inactive) | GI50 (MDA-MB-231): 29.4 µM (inactive) | GI50 (M14): 14.5 µM (inactive) | GI50 (PC-3): 17.1 µM (inactive) | GI50 (BT-549): 21.4 µM (inactive) | GI50 (SK-MEL-2): 28.3 µM (inactive) | GI50 (SF-268): 20.3 µM (inactive) | GI50 (UACC-257): 37.2 µM (inactive) | GI50 (HCC 2998): 46.8 µM (inactive) | GI50 (SF-295): 21.9 µM (inactive) | GI50 (NCI-H23): 21.2 µM (inactive) | GI50 (HCT-15): 5.66 µM | GI50 (A498): 11.6 µM (inactive) | GI50 (MOLT-4): 10.9 µM (inactive) | GI50 (SW-620): 20.9 µM (inactive) | GI50 (TK-10): 30.9 µM (inactive)

CCC1CN(C(=O)c2ccccc2)C(Cc2c[nH]c3ccccc23)C(=O)C1CC(=O)OC (stereo unspecified)
GI50 (OVCAR-5): > 100 µM (inactive) | GI50 (M14): 58.6 µM (inactive) | GI50 (PC-3): 46 µM (inactive) | GI50 (SR): 36.6 µM (inactive) | GI50 (LOX IMVI): 90.6 µM (inactive) | GI50 (BT-549): > 100 µM (inactive) | GI50 (SK-MEL-2): > 100 µM (inactive) | GI50 (SF-268): > 100 µM (inactive) | GI50 (UACC-257): > 100 µM (inactive) | GI50 (SF-295): > 100 µM (inactive) | GI50 (NCI-H23): 74.6 µM (inactive) | GI50 (HCT-15): > 100 µM | GI50 (A498): 1.09 µM (active) | GI50 (MOLT-4): 27.7 µM (inactive) | GI50 (SW-620): > 100 µM (inactive) | GI50 (TK-10): > 100 µM (inactive)

Cc1c(N)nc(C2CC(=O)N2CC(N)C(N)=O)nc1C(=O)NC(C(=O)NC(C)C(O)C(C)C(=O)NC(C(=O)NCCc1nc(-c2nc(C(=O)NCCNCC(C)O)cs2)cs1)C(C)O)C(OC1OC(CO)C(O)C(O)C1OC1OC(CO)C(O)C(OC(N)=O)C1O)c1c[nH]cn1 (stereo unspecified)
GI50 (OVCAR-5): 2.67 µM (inactive) | GI50 (MDA-MB-231): > 50 µM (inactive) | GI50 (M14): 2.26 µM (inactive) | GI50 (PC-3): > 50 µM (inactive) | GI50 (LOX IMVI): 0.184 µM (active) | GI50 (BT-549): > 50 µM (inactive) | GI50 (RPMI-8226): 9.02 µM (inactive) | GI50 (SK-MEL-2): 38.1 µM (inactive) | GI50 (SF-268): 0.5 µM (active) | GI50 (UACC-257): 0.528 µM (active) | GI50 (HCC 2998): 21.9 µM (inactive) | GI50 (SF-295): 0.167 µM (active) | GI50 (NCI-H23): 0.437 µM (active) | GI50 (HCT-15): 2.73 µM | GI50 (A498): 5.35 µM (inactive) | GI50 (HCT-116): 0.148 µM (active) | GI50 (MOLT-4): 0.701 µM (active) | GI50 (SW-620): 13.9 µM (inactive) | GI50 (TK-10): 37.6 µM (inactive)

Cc1cccc(-c2cc(=S)c3cc(N4CCCC4)ccc3[nH]2)c1
GI50 (OVCAR-5): > 100 µM (inactive) | GI50 (MDA-MB-231): > 100 µM (inactive) | GI50 (M14): > 100 µM (inactive) | GI50 (PC-3): > 100 µM (inactive) | GI50 (LOX IMVI): > 100 µM (inactive) | GI50 (RPMI-8226): > 100 µM (inactive) | GI50 (SK-MEL-2): > 100 µM (inactive) | GI50 (SF-268): > 100 µM (inactive) | GI50 (UACC-257): > 100 µM (inactive) | GI50 (HCC 2998): > 100 µM (inactive) | GI50 (SF-295): > 100 µM (inactive) | GI50 (HCT-15): > 100 µM | GI50 (A498): > 100 µM (inactive) | GI50 (HCT-116): > 100 µM (inactive) | GI50 (MOLT-4): > 100 µM (inactive) | GI50 (SW-620): > 100 µM (inactive) | GI50 (TK-10): > 100 µM (inactive)

C[O+]=C1C=CC(=C2SC(c3ccccc3)(c3ccccc3)c3ccccc32)C=C1.[O-][Cl+3]([O-])([O-])[O-]
GI50 (OVCAR-5): 19.5 µM (inactive) | GI50 (MDA-MB-231): 18.5 µM (inactive) | GI50 (M14): 16.1 µM (inactive) | GI50 (PC-3): 20.9 µM (inactive) | GI50 (LOX IMVI): 18 µM (inactive) | GI50 (BT-549): 24.7 µM (inactive) | GI50 (RPMI-8226): 17.5 µM (inactive) | GI50 (SK-MEL-2): 15.6 µM (inactive) | GI50 (SF-268): 29 µM (inactive) | GI50 (UACC-257): 16.6 µM (inactive) | GI50 (HCC 2998): 26.5 µM (inactive) | GI50 (SF-295): 22.1 µM (inactive) | GI50 (NCI-H23): 21.1 µM (inactive) | GI50 (HCT-15): 10.9 µM | GI50 (A498): 24 µM (inactive) | GI50 (HCT-116): 10.3 µM (inactive) | GI50 (MOLT-4): 13.1 µM (inactive) | GI50 (SW-620): 31.6 µM (inactive) | GI50 (TK-10): 23.4 µM (inactive)

Oc1ccc2ccccc2c1Cc1c(O)ccc2ccccc12
GI50 (OVCAR-5): 15.6 µM (inactive) | GI50 (MDA-MB-231): 18.2 µM (inactive) | GI50 (M14): 16.7 µM (inactive) | GI50 (PC-3): 17.5 µM (inactive) | GI50 (LOX IMVI): 15.2 µM (inactive) | GI50 (BT-549): 16.9 µM (inactive) | GI50 (RPMI-8226): 16.4 µM (inactive) | GI50 (SK-MEL-2): 18.6 µM (inactive) | GI50 (SF-268): 14 µM (inactive) | GI50 (UACC-257): 19.5 µM (inactive) | GI50 (HCC 2998): 17.4 µM (inactive) | GI50 (SF-295): 16.7 µM (inactive) | GI50 (NCI-H23): 16.1 µM (inactive) | GI50 (HCT-15): 14.8 µM | GI50 (A498): 18.2 µM (inactive) | GI50 (HCT-116): 16.1 µM (inactive) | GI50 (MOLT-4): 15 µM (inactive) | GI50 (SW-620): 16 µM (inactive) | GI50 (TK-10): 21 µM (inactive)
